Reference: patent publication US20020198219A1, “2-pyridinamine compositions and related methods” (priority 2000, published 2002)

Test system: differentiated P19 neurons
Assay: Drug screening using differentiated P19 cell assay (neuroprotection against glutamate/glycine)
Format: cell-based, murine
Conditions: for IC50: dose response 0.005-3 μM, 3 mM glutamate + 1 mM glycine, >1 = no maximum within highest dose (3 μM); for % neuroprotection (cell survival relative to control): screened at 1 micromolar, percentage of control cells surviving after 24 hours
Procedure: Commercially available chemical libraries (BioFocus PLC, UK) were screened using the methods described herein. The stock concentration of the compounds was about 400 μM in DMSO. The concentration of compounds used in the primary screen was 1 μM. […] Columns 4-11 received compounds at the following final concentrations (μM): 3, 1.2, 0.48, 0.192, 0.077, 0.031, 0.012 and 0.005. Each row contained a different compound for confirmation. Only rows B-G received compounds, and rows A and H remained untreated. Data are expressed as % neuroprotection=((compound-glutamate average)/(U0126-glutamate average)×100).
Only the 2-pyridinamines are the subject of this invention, although limited data for 4-pyrimidinamines are presented as well. “% Inh” indicates the percentage of control cells surviving after 24 hours, and represents the neuroprotective effect of the compounds screened at 1 micromolar concentration. IC50 relate to data from dose response experiments. […] ND refers to compounds not tested in dose-response experiments. […]

| SMILES | IC50 | % neuroprotection (cell survival relative to control) | IC50 (Mus musculus, Neuron) |
| --- | --- | --- | --- |
| CCn1c2ccccc2c2cc(Nc3cccc(-c4ccc(OC)c(OC)c4)n3)ccc21 [Cmpd 129] | 340 nM | 92% | – |
| c1ccc2cc(-c3ccc(Nc4ccc(N5CCOCC5)cc4)nc3)ccc2c1 [Cmpd 25, 2-pyridinamine, N-[4-(4-morpholinyl)phenyl]-5-(2-naphthyl)-] | – | 100% | 84 nM |
| COc1cc(Nc2cccc(-c3cc4ccccc4o3)n2)cc(OC)c1OC [Cmpd 110] | 140 nM | 91% | – |
| COc1ccc(Nc2ccc(-c3ccc(OC(F)(F)F)cc3)cn2)cc1 [Cmpd 3] | 510 nM | 94% | – |
| CCOc1cccc(-c2ccc(Nc3cc(OC)c(OC)c(OC)c3)nc2)c1 [Cmpd 12, 2-pyridinamine, 5-(3-ethoxyphenyl)-N-(3,4,5-trimethoxyphenyl)-] | – | 87% | 47 nM |
| CCn1c2ccccc2c2cc(Nc3ccc(-c4ccc(N5CCOCC5)cc4)cn3)ccc21 [Cmpd 77] | – | 82% | – |
| Fc1ccc(-c2ccc(Nc3ccc(N4CCOCC4)cc3)nc2)cc1Cl [Cmpd 31] | > 1000 nM | 83% | – |
| COc1cc(-c2ccc(Nc3ccc(N4CCOCC4)cc3)nc2)cc(OC)c1OC [Cmpd 24] | 1760 nM | 94% | – |
| COc1cc(Nc2cccc(-c3ccc(Cl)c(Cl)c3)n2)cc(OC)c1OC [Cmpd 146] | 320 nM | 99% | – |
| COc1ccc(-c2ccc(Nc3ccc(N4CCOCC4)cc3)nc2)cc1OC [Cmpd 79] | 460 nM | 110% | – |
| CCCCCOc1ccc(Nc2ccc(-c3ccc4c(c3)OCO4)cn2)cc1 [Cmpd 13, 2-pyridinamine, 5-(1,3-benzodioxol-5-yl)-N-[4-(pentyloxy)phenyl]-] | – | 98% | 260 nM |
| COc1cc(Nc2cccc(-c3ccc(Cl)cc3)n2)cc(OC)c1OC [Cmpd 141] | – | 76% | – |
| COc1cc(Nc2cccc(-c3ccc(C)c(C)c3)n2)cc(OC)c1OC [Cmpd 126, 2-pyridinamine, 6-(3,4-dimethylphenyl)-N-(3,4,5-trimethoxyphenyl)-] | – | 90% | 80 nM |
| COc1cc(Nc2ccc(-c3cccc(N(C)C)c3)cn2)cc(OC)c1OC [Cmpd 74] | – | 95% | – |
| COc1ccc(Nc2cccc(C=Cc3ccccc3)n2)c(C)c1OC [Cmpd 145] | 280 nM | 96% | – |
| CCCCCOc1ccc(Nc2ccc(-c3ccc(N(C)C)cc3)cn2)cc1 [Cmpd 7, 2-pyridinamine, 5-[4-(dimethylamino)phenyl]-N-[4-(pentyloxy)phenyl]-] | – | 88% | 240 nM |
| c1ccc2cc(-c3ccc(Nc4ccc5c(c4)OCCO5)nc3)ccc2c1 [Cmpd 81] | 470 nM | 107% | – |
| COc1ccc(Nc2cccc(-c3cccc(N(C)C)c3)n2)cc1 [Cmpd 105] | 400 nM | 98% | – |
| COc1ccccc1-c1ccc(Nc2ccc(N3CCOCC3)cc2)nc1 [Cmpd 32] | > 1000 nM | 100% | – |

| SMILES | IC50 | % neuroprotection (cell survival relative to control) | IC50 (Mus musculus, Neuron) |
| --- | --- | --- | --- |
| CCOc1cccc(-c2cccc(Nc3cc(OC)c(OC)c(OC)c3)n2)c1 [Cmpd 114, 2-pyridinamine, 6-(3-ethoxyphenyl)-N-(3,4,5-trimethoxyphenyl)-] | – | 96% | 140 nM |
| COc1cc(Nc2cccc(-c3cc(OC)c(OC)c(OC)c3)n2)cc(OC)c1OC [Cmpd 112] | 900 nM | 90% | – |
| CCCCCOc1ccc(Nc2ccc(-c3cccc(N(C)C)c3)cn2)cc1 [Cmpd 75] | – | 88% | – |
| COc1cc(Nc2cccc(-c3ccccc3)n2)cc(OC)c1OC [Cmpd 122, 2-pyridinamine, 6-phenyl-N-(3,4,5-trimethoxyphenyl)-] | – | 84% | 7 nM |
| CCn1c2ccccc2c2cc(Nc3cccc(-c4ccco4)n3)ccc21 [Cmpd 132] | > 1000 nM | 105% | – |
| c1ccc(-c2ccc(-c3ccc(Nc4ccc(N5CCOCC5)cc4)nc3)cc2)cc1 [Cmpd 78] | 470 nM | 109% | – |
| COc1ccc(Nc2cccc(-c3ccc(N(C)C)cc3)n2)cc1 [Cmpd 98] | – | 71% | – |
| CCn1c2ccccc2c2cc(Nc3cccc(-c4cncc(OC)c4)n3)ccc21 [Cmpd 134] | 1590 nM | 92% | – |
| COc1ccc(Nc2cccc(-c3ccc(C)c(C)c3)n2)cc1 [Cmpd 128] | 1540 nM | 84% | – |
| COc1ccc(Nc2cccc(-c3ccc4ccccc4c3)n2)c(C)c1OC [Cmpd 136] | – | 86% | > 1000 nM |
| FC(F)(F)c1cc(-c2ccc(Nc3ccc(N4CCOCC4)cc3)nc2)cc(C(F)(F)F)c1 [Cmpd 21, 2-pyridinamine, 5-[3,5-bis(trifluoromethyl)phenyl]-N-[4-(4-morpholinyl)phenyl]-] | – | 95% | 210 nM |
| C(=C\c1ccc(Nc2ccc3c(c2)OCCO3)nc1)/c1ccccc1 [Cmpd 88, 2-pyridinamine, N-(2,3-dihydro-1,4-benzodioxin-6-yl)-5-[(E)-2-phenylethenyl]-] | – | 85% | 230 nM |
| COc1ccc(Nc2cccc(-c3cccc(N)c3)n2)cc1 [Cmpd 100] | – | 79% | – |
| COc1cc(Nc2cccc(-c3ccc(N4CCOCC4)cc3)n2)cc(OC)c1OC [Cmpd 106] | 660 nM | 84% | – |
| COc1cc(Nc2cccc(-c3ccc(O)cc3)n2)cc(OC)c1OC [Cmpd 117] | – | 78% | – |
| COc1ccccc1-c1ccc(Nc2ccc3c(c2)OCCO3)nc1 [Cmpd 11] | 870 nM | 83% | – |
| COc1ncc(-c2cccc(Nc3cc(OC)c(OC)c(OC)c3)n2)c(OC)n1 [Cmpd 107] | – | 71% | – |
| CCCCCOc1ccc(Nc2ccc(-c3ccc(N4CCOCC4)cc3)cn2)cc1 [Cmpd 6, 2-pyridinamine, 5-[4-(4-morpholinyl)phenyl]-N-[4-(pentyloxy)phenyl]-] | – | 83% | 220 nM |
| Clc1ccc(-c2ccc(Nc3ccc(N4CCOCC4)cc3)nc2)cc1 [Cmpd 29] | > 1000 nM | 82% | – |

| SMILES | IC50 | % neuroprotection (cell survival relative to control) | IC50 (Mus musculus, Neuron) |
| --- | --- | --- | --- |
| COc1cc(Nc2cccc(-c3ccc4ccccc4c3)n2)cc(OC)c1OC [Cmpd 135, 2-pyridinamine, 6-(2-naphthyl)-N-(3,4,5-trimethoxyphenyl)-] | – | 86% | 210 nM |
| FC(F)(F)Oc1ccc(-c2ccc(Nc3ccc4c(c3)OCCO4)nc2)cc1 [Cmpd 4] | 380 nM | 86% | – |
| COc1ccc(Nc2cccc(-c3ccc(Cl)cc3)n2)cc1 [Cmpd 103] | – | 75% | – |
| c1ccc(Oc2ccccc2-c2ccc(Nc3ccc(N4CCOCC4)cc3)nc2)cc1 [Cmpd 28] | > 1000 nM | 83% | – |
| CN(C)c1cccc(Nc2ccc(-c3ccc(N4CCN(C(=O)OC(C)(C)C)CC4)cc3)cn2)c1 [Cmpd 38] | – | 89% | – |
| Cc1ccc(-c2ccc(Nc3ccc(N4CCOCC4)cc3)nc2)cc1C [Cmpd 80] | 750 nM | 94% | – |
| c1cc(N2CCOCC2)ccc1Nc1ccc(-c2ccc3c(c2)OCO3)cn1 [Cmpd 30] | > 1000 nM | 84% | – |
| COc1cc(Nc2ccc(-c3ccc(N4CCN(C(=O)OC(C)(C)C)CC4)cc3)cn2)cc(OC)c1OC [Cmpd 40] | – | 77% | – |
| COc1cc(Nc2ccc(-c3ccc(C)c(C)c3)cn2)cc(OC)c1OC [Cmpd 84] | 490 nM | 85% | – |
| c1ccc2oc(-c3ccc(Nc4ccc(N5CCOCC5)cc4)nc3)cc2c1 [Cmpd 23] | 920 nM | 96% | – |
| COc1ccc(Nc2cccc(-c3ccccc3Oc3ccccc3)n2)cc1 [Cmpd 101] | – | 78% | – |
| COc1ccc(Nc2cccc(-c3ccccc3)n2)cc1 [Cmpd 123] | – | 90% | 650 nM |
| COc1ccc(Nc2cccc(-c3ccco3)n2)cc1 [Cmpd 131] | – | 95% | 240 nM |
| COc1ccc(Nc2ccc(-c3ccccc3)cn2)cc1 [Cmpd 82] | – | 72% | – |
| Oc1ccc(-c2ccc(Nc3ccc(N4CCOCC4)cc3)nc2)cc1 [Cmpd 1] | 1080 nM | 84% | – |
| COc1ccc(Nc2ccc(C=Cc3ccccc3)cn2)c(C)c1 [Cmpd 90] | – | 73% | – |
| c1ccc(Oc2ccc(Nc3cccc(-c4ccc5c(c4)OCO5)n3)cc2)cc1 [Cmpd 140] | – | 79% | – |
| Cc1ccc(-c2ccc(Nc3ccc4c(c3)OCCO4)nc2)cc1C [Cmpd 85] | > 1000 nM | 86% | – |
